PMC6112376, “Comprehensive Analyses and Prioritization of Tox21 10K Chemicals Affecting Mitochondrial Function by in-Depth Mechanistic Studies” (Environmental Health Perspectives, 2018)
Read-outs that look alike come from different tables or passages of the source.

Columns and labels:
rat primary hepatocytes [1] = experiment: MMP assay in rat primary hepatocytes; details: for IC50: Rattus norvegicus, Hepatocyte, read-out: MMP assays IC50 (µM) Rat Hepatocytes
HepG2 cells [2] = details: cited from earlier work
HepG2 cells [3] = experiment: cells; details: Homo sapiens; for IC50: HepG2, read-out: MMP assays IC50 (µM) HepG2; for Emax: HepG2, read-out: MMP assays efficacy (%) HepG2
rat primary hepatocytes [4] = system: rat primary hepatocytes
[5] = read-out: MMP assays IC50 (µM) qHTS-HepG2
[6] = read-out: MMP assays IC50 (µM), qHTS-HepG2

Row | Structure (SMILES) | MMP assays IC50 (µM) Rat Hepatocytes (rat primary hepatocytes [1]) | MMP assays efficacy (%) qHTS-HepG2 (HepG2 cells [2]) | IC50 (HepG2 cells [2]; [5]) | IC50 (HepG2 cells [3]) | Emax (HepG2 cells [3]) | MMP assays efficacy (%) Rat Hepatocytes (rat primary hepatocytes [4]) | IC50 (rat primary hepatocytes [1]) | IC50 (HepG2 cells [2]; [6])
1 | ClC1=C(Cl)C2(Cl)C(CBr)CC1(Cl)C2(Cl)Cl (centres unmarked) [Bromociclen] | inactive | -87±13% | 33.2 ± 3.47 µM | 15.5 µM | 47% | inactive | – | –
2 | CCCN(CCC)c1c([N+](=O)[O-])cc(C(F)(F)F)c(N)c1[N+](=O)[O-] [Prodiamine] | – | -85±11% | – | 8.91 µM | 93% | -95±8% | 25.4 ± 11.7 µM | 4.84 ± 0.56 µM
3 | COP(=S)(OC)Oc1c(Cl)cc(C)cc1Cl [Tolclofos-methyl] | – | -72±22% | – | 39.8 µM | 105% | -74±66% | 31.2 ± 19 µM | 30.6 ± 5.8 µM
4 | O=C1c2ccccc2C(=O)c2cc(O)ccc21 [Compound 2-Hydroxyanthraquinone] | – | -124±4% | 3.31 ± 1.38 µM | 7.08 µM | 120% | -68±21% | 17.3 ± 6.83 µM | –
5 | CC(C)C(C(=O)OC(C#N)c1cccc(Oc2ccccc2)c1)c1ccc(Cl)cc1 (centres unmarked) [Fenvalerate] | inactive | -69±10% | – | 35.5 µM | 60% | inactive | – | 32.1 µM
6 | CC(=O)[C@]1(O)Cc2c(O)c3c(c(O)c2[C@@H](O[C@H]2C[C@H](N)[C@H](O)[C@H](C)O2)C1)C(=O)c1c(O)cccc1C3=O [Carminomycin] | inactive | -91±17% | 1.25 ± 0.73 µM | 21.8 µM | 68% | inactive | – | –
7 | Nc1cccc2c(N)cccc12 [1,5-Naphthalenediamine] | inactive | -76±19% | 17 ± 19.6 µM | 3.16 µM | 101% | inactive | – | –
8 | C[C@H]1CCCC(=O)CCC/C=C/c2cc(O)cc(O)c2C(=O)O1 [Zearalenone] | – | -110±22% | – | 5.84 µM | 115% | -68±24% | 22 ± 1.79 µM | 4.67 ± 1.77 µM
9 | Cc1c(Cl)cccc1Nc1ccccc1C(=O)O [Tolfenamic acid] | – | -115±7% | – | 17.3 µM | 98% | -105±5% | 14.8 ± 4.38 µM | 11.9 µM
10 | CC1(C)[C@H](C(=O)O[C@H](C#N)c2cccc(Oc3ccccc3)c2)[C@@H]1/C=C(\Cl)C(F)(F)F [lambda-Cyhalothrin] | – | -68±22% | – | 15.8 µM | 58% | -56±14% | 28.2 µM | 24.4 ± 1.59 µM
11 | CN(C)c1ccc(N)cc1 [N,N-Dimethyl-p-phenylenediamine] | – | -100±15% | – | 7.08 µM | 109% | -69±29% | 21.7 ± 15.7 µM | 9.1 ± 0.59 µM
12 | C=CC[C@]1(O)CC[C@H]2[C@@H]3CCC4=CCCC[C@@H]4[C@H]3CC[C@@]21C [Allylestrenol] | inactive | -52±13% | 12.8 ± 3.68 µM | 31.6 µM | 97% | inactive | – | –
13 | Oc1cc(Cl)cc(Cl)c1Cl [2,3,5-Trichlorophenol] | – | -99±7% | 5.8 ± 1.05 µM | 6.31 µM | 114% | -77±25% | 27.7 ± 10.4 µM | –
14 | O=c1oc2ccccc2c(O)c1C1CCCc2ccccc21 (centres unmarked) [Coumatetralyl] | – | -144±2% | 13.7 ± 4.84 µM | 35.5 µM | 124% | -110±37% | 13.8 ± 8.1 µM | –
15 | O=C(Nc1ccccc1)c1ccccc1O [Salicylanilide] | – | -125±11% | – | 3.98 µM | 101% | -91±5% | 29.1 ± 12.2 µM | 3.71 ± 1.27 µM
16 | Oc1ccccc1-c1ccccc1 [Compound 2-Phenylphenol] | – | -97±7% | 17.9 ± 1.41 µM | 28.2 µM | 108% | -75±20% | 53.2 ± 4.32 µM | –
17 | CO[C@H]1C[C@@H]2CC[C@@H](C)[C@@](O)(O2)C(=O)C(=O)N2CCCC[C@H]2C(=O)O[C@H]([C@H](C)C[C@@H]2CC[C@@H](O)[C@H](OC)C2)CC(=O)[C@H](C)/C=C(\C)[C@@H](O)[C@@H](OC)C(=O)[C@H](C)C[C@H](C)/C=C/C=C/C=C/1C [Sirolimus] | – | -95±3% | – | 17.3 µM | 95% | -61±8% | 20.6 ± 1.68 µM | 20.1 ± 2.07 µM

Row | Structure (SMILES) | MMP assays IC50 (µM) Rat Hepatocytes (rat primary hepatocytes [1]) | MMP assays efficacy (%) qHTS-HepG2 (HepG2 cells [2]) | IC50 (HepG2 cells [2]; [5]) | IC50 (HepG2 cells [3]) | Emax (HepG2 cells [3]) | MMP assays efficacy (%) Rat Hepatocytes (rat primary hepatocytes [4]) | IC50 (rat primary hepatocytes [1]) | IC50 (HepG2 cells [2]; [6])
18 | NC(=O)Oc1ccc(Cc2ccccc2)cc1 [Diphenan] | – | -115±14% | 22.3 ± 4.67 µM | 19.9 µM | 112% | -51±6% | 84.2 ± 39.6 µM | –
19 | C[C@@H]1O[C@@H](O[C@H]2C[C@@H](O)[C@]3(CO)[C@H]4[C@H](O)C[C@]5(C)[C@@H](C6=CC(=O)OC6)CC[C@]5(O)[C@@H]4CC[C@]3(O)C2)[C@H](O)[C@H](O)[C@H]1O [Ouabain] | inactive | -88±7% | – | 0.22 µM | 94% | inactive | – | 0.18 µM
20 | COc1cccc2c1C(=O)c1c(O)c3c(c(O)c1C2=O)C[C@@](O)(C(=O)CO)C[C@@H]3O[C@H]1C[C@H](N)[C@H](O[C@@H]2CCCCO2)[C@H](C)O1 [Pirarubicin] | – | -68±19% | – | 0.69 µM | 53% | -39±8% | 0.03 µM | 0.6 ± 0.46 µM
21 | C[C@]12CC[C@@H]3c4ccc(O)cc4CC[C@H]3[C@@H]1CC[C@H]2O [Compound 17alpha-Estradiol] | – | -106±11% | 37.8 ± 13.9 µM | 22.4 µM | 105% | -64±3% | 35.5 µM | –
22 | CCN1/C(=C/C=C/C=C/c2sc3ccccc3[n+]2CC)Sc2ccccc21 [Dithiazanine iodide] | – | -85±6% | 0.1 ± 0.15 µM | 0.0275 µM | 88% | -59±11% | 0.98 ± 0.16 µM | –
23 | CC(C)C[C@H]1C(=O)N2CCC[C@H]2[C@]2(O)O[C@](NC(=O)[C@@H]3C=C4c5cccc6[nH]c(Br)c(c56)C[C@H]4N(C)C3)(C(C)C)C(=O)N12 [Bromocriptine] | – | -112±8% | 11.4 ± 1.58 µM | 21.8 µM | 121% | -68±7% | 13.2 ± 10.8 µM | –
24 | COc1ccc(C(=O)c2ccccc2O)c(O)c1 [2,2'-Dihydroxy-4-methoxybenzophenone] | – | -98±6% | 9.89 ± 1.04 µM | 5.24 µM | 103% | -47±18% | 11.1 ± 5.21 µM | –
25 | OC(c1ccc(Cl)cc1)(c1cncnc1)c1ccccc1Cl (centres unmarked) [Fenarimol] | – | -77±13% | 42.6 ± 21.9 µM | 35.5 µM | 81% | -81±45% | 33.5 ± 2.73 µM | –
26 | O=c1c(-c2ccc(O)cc2)coc2cc(O)cc(O)c12 [Genistein] | – | -101±1% | – | 10 µM | 96% | -70±41% | 33.7 ± 19.5 µM | 6.34 ± 0.77 µM
27 | COC(=O)Nc1nc2ccc(C(=O)c3cccs3)cc2[nH]1 [Nocodazole] | inactive | -62±6% | – | 2.18 µM | 87% | inactive | – | 3.53 ± 1.63 µM
28 | Nc1ccc(-c2ccc(N)cc2)cc1 [Benzidine] | – | -59±14% | 24.3 ± 4.5 µM | 15.8 µM | 79% | -69±64% | 2.51 ± 3.54 µM | –
29 | O=[N+]([O-])c1ccc2c(c1)Cc1ccccc1-2 [Compound 2-Nitrofluorene] | – | -53±5% | 12.2 ± 0.86 µM | 50.1 µM | 41% | -57±0% | 38.1 ± 9.22 µM | –
30 | Oc1cc(Cl)c(Cl)c(Cl)c1 [3,4,5-Trichlorophenol] | – | – | 3.8 ± 1.74 µM | 5.01 µM | 96% | -100±4% | 33.8 ± 17.2 µM | –
31 | CN1C(C(=O)Nc2ccccn2)=C(O)c2sccc2S1(=O)=O [Tenoxicam] | – | -83±17% | – | 6.6 µM | 69% | -65±17% | 4.23 ± 3.79 µM | 8.36 ± 1.07 µM
32 | C#C[C@]1(OC(C)=O)CC[C@H]2[C@@H]3CCC4=C[C@@H](OC(C)=O)CC[C@@H]4[C@H]3CC[C@@]21C [Ethynodiol diacetate] | inactive | -62±16% | 15.4 ± 0.84 µM | 21.8 µM | 98% | inactive | – | –
33 | CC(=O)Nc1ccc2c(c1)Cc1ccccc1-2 [Compound 2-Acetylaminofluorene] | inactive | -63±5% | 36.3 ± 10.5 µM | 31.6 µM | 46% | inactive | – | –
